# Experimental data published in ChEMBL document CHEMBL4368877, “Discovery of potent pyruvate dehydrogenase kinase inhibitors and evaluation of their anti-lung cancer activity under hypoxia” (Medchemcomm, 2018).
# Active and inactive are the calls of the source. The rule behind the calls is not given here.
# Key:
# [1] = biological target: [Pyruvate dehydrogenase (acetyl-transferring)] kinase isozyme 1, mitochondrial (Homo sapiens, UniProt Q15118); assay: Inhibition of PDK1 (unknown origin) using PDC E1 as substrate measured after 30 mins by kinase-glo assay
# Chain of [Pyruvate dehydrogenase (acetyl-transferring)] kinase isozyme 1, mitochondrial (Q15118 whole entry): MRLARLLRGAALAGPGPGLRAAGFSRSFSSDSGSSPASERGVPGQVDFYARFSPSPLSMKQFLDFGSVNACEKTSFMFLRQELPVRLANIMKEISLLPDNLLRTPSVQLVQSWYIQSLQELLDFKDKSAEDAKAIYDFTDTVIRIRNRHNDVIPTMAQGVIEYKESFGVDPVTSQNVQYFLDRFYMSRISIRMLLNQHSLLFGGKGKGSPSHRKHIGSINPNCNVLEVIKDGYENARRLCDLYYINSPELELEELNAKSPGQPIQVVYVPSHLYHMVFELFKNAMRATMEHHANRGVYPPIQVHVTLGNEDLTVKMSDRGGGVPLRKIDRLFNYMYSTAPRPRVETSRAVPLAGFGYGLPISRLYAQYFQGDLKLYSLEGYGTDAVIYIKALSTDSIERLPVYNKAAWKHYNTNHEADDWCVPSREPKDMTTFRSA
# [2] = biological target: [Pyruvate dehydrogenase (acetyl-transferring)] kinase isozyme 2, mitochondrial (Homo sapiens, UniProt Q15119); assay: Inhibition of PDK2 (unknown origin) using PDC E1 as substrate measured after 30 mins by kinase-glo assay
# [3] = biological target: [Pyruvate dehydrogenase (acetyl-transferring)] kinase isozyme 3, mitochondrial (Homo sapiens, UniProt Q15120); assay: Inhibition of PDK3 (unknown origin) using PDC E1 as substrate measured after 30 mins by kinase-glo assay
# Chain of [Pyruvate dehydrogenase (acetyl-transferring)] kinase isozyme 3, mitochondrial (Q15120 whole entry): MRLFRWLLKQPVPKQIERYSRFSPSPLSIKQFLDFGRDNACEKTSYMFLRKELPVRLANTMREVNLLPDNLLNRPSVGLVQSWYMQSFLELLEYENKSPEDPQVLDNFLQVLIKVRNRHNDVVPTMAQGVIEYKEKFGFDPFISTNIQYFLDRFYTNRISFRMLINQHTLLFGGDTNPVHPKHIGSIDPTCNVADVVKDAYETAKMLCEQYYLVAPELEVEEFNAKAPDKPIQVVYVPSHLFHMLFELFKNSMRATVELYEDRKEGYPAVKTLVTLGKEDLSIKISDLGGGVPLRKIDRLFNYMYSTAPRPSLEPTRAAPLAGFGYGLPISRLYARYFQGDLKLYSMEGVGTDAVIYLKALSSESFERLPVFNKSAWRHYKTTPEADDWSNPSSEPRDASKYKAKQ
# [4] = biological target: [Pyruvate dehydrogenase (acetyl-transferring)] kinase isozyme 4, mitochondrial (Homo sapiens, UniProt Q16654); assay: Inhibition of PDK4 (unknown origin) using PDC E1 as substrate measured after 30 mins by kinase-glo assay
# Chain of [Pyruvate dehydrogenase (acetyl-transferring)] kinase isozyme 4, mitochondrial (Q16654 whole entry): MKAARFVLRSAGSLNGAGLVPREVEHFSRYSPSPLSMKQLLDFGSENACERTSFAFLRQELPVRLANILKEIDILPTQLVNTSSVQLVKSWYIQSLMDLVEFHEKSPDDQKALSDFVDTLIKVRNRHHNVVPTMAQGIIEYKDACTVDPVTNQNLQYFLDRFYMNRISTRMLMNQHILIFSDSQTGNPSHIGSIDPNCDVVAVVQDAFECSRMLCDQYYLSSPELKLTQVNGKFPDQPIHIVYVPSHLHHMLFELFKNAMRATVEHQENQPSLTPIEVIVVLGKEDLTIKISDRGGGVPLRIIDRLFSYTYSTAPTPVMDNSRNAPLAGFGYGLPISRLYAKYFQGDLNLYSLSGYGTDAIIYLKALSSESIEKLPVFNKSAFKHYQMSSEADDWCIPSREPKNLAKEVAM
# [5] = test system: NCI-H1975; assay: Cytotoxicity against human NCI-H1975 cells assessed as reduction in cell proliferation at 1 to 10 uM after 72 hrs under normoxic condition by MTT assay; type: cell-based; conditions: nci-h1975, 72 h
# [6] = test system: NCI-H1975; assay: Cytotoxicity against human NCI-H1975 cells assessed as reduction in cell proliferation after 72 hrs under hypoxic condition by MTT assay; conditions: NCI-H1975, 72 h
# [7] = biological target: Pyruvate dehydrogenase kinase (Homo sapiens) (UniProt Q15119+Q15120+Q16654+Q15118); assay: Inhibition of PDK in human NCI-H1975 cells assessed as reduction in PDC phosphorylation at 10 uM measured after 12 hrs under hypoxic condition by Western blot analysis; type: cell-based
IC50 [1],IC50 [2],IC50 [3],IC50 [4],Structure (SMILES),Activity [5],EC50 [6],inhibition [7]
–,1.5 µM,3.9 µM,6.8 µM,OCCOc1ccc(CN2CCN(Cc3ccc(F)c(F)c3)[C@@H](CCO)C2)cc1,Non-Toxic,–,–
1.26 µM,2.5 µM,7.8 µM,12.3 µM,CN(C)CCCn1ccnc1[C@H]1CCCN(C(=O)c2ccc3cc[nH]c3c2)C1,Non-Toxic,–,–

# Continued, molecule first:
Structure (SMILES),IC50 [1],IC50 [2],IC50 [3],IC50 [4],Activity [5],EC50 [6],inhibition [7]
O=C(NCc1ccccc1-n1cccn1)c1cc(-c2ccccc2O)n[nH]1,0.62 µM,2.6 µM,4.8 µM,8.7 µM,Non-Toxic,4.28 µM,–
O=C(c1ccccc1)C(Cl)Cl,–,–,–,–,–,–,Active
Cc1cnc(Cl)nc1-c1ccc(N(Cc2ccc(CNC(=O)C(F)F)cc2)C(=O)c2ccc(O)cc2O)cc1,–,–,–,–,Non-Toxic,–,–
